Here are results for 1 compound from patent publication US20250059574A1, “METHODS FOR PREPARING (2S,3R)-P-METHYLSULFONYLPHENYLSERINE” (TAIZHOU UNIVERSITY, priority 2023, published 2025).

This assay has as its system transaldolase (Taizhou Lingfeng Biotechnology Co., Ltd., LF145). Put plainly: Effect of acetaldehyde on the activity of transaldolase. Conditions: reaction 10 min, 35° C., HPLC, without acetaldehyde 3.31 g/L. Format: biochemical. The method, then:
In a 50 mL round-bottom flask, 10 mL of a reaction system contained 14 g/L p-methylsulfonylbenzaldehyde, 10.5 g/L threonine, 1 g/L pyridoxal phosphate, and 1 mL of transaldolase (Taizhou Lingfeng Biotechnology Co., Ltd., LF145), different concentrations (0, 1 g/L, 5 g/L, 10 g/L, and 20 g/L) of acetaldehyde were respectively prepared, the mixture was shaken in a water bath at 35° C. for 10 min, and the content of D-acid produced was detected by HPLC.

As to `CC=O` [acetaldehyde], the “(2S,3R)-p-methylsulfonylphenylserine produced” value came to 1.76 g/L (1 g/L acetaldehyde added), 0.66 g/L (5 g/L acetaldehyde added), 0.303 g/L (10 g/L acetaldehyde added) and 0.153 g/L (20 g/L acetaldehyde added).
